Values quoted from earlier work, collected in patent US20240139316A1, “USE OF OREGOVOMAB AND BEVACIZUMAB, PACLITAXEL, CARBOPLATIN FOR TREATMENT OF BRCA-WILD TYPE PLATINUM SENSITIVE RECURRENT” (CANARIABIO INC., priority 2021, published 2024).

Assays:
[1] = stage III or IV ovarian cancer after initial surgical operation; bevacizumab added to carboplatin and paclitaxel, followed by single-agent bevacizumab
[2] = oregovomab alone after the initial chemotherapy treatment, advanced ovarian cancer
[3] = four infusions of Oregovomab with standard six cycle carboplatin and paclitaxel, relative to carboplatin-paclitaxel alone

Question: With “bevacizumab: recombinant humanized IgG1 monoclonal antibody that selectively binds human VEGF-A” as the substance, how does the Progression-free survival [1] read?
Answer: 18 months

Question: With Oregovomab as the substance, how does the clinical outcome [2] read?
Answer: no improvements

Question: And the “overall survival (OS)” value [3]?
Answer: significant improvement

Question: And the “progression free survival (PFS)” value [3]?
Answer: significant improvement

Question: Which Progression-free survival [1] does the source give for carboplatin and paclitaxel here?
Answer: 13 months
